Assay results from ChEMBL document CHEMBL4364273, “Discovery of SHR1653, a Highly Potent and Selective OTR Antagonist with Improved Blood-Brain Barrier Penetration” (ACS Med Chem Lett, 2019).

Experiments:
[1] = target: T1, Oxytocin receptor (Homo sapiens, UniProt P30559); assay: Antagonist activity at human OTR expressed in HEK293 cells assessed as decrease in calcium flux measured after 10 mins in […] by Fluo-4 dye based microplate reader based assay; assay type: functional, cell-based
T1 sequence (P30559 whole entry): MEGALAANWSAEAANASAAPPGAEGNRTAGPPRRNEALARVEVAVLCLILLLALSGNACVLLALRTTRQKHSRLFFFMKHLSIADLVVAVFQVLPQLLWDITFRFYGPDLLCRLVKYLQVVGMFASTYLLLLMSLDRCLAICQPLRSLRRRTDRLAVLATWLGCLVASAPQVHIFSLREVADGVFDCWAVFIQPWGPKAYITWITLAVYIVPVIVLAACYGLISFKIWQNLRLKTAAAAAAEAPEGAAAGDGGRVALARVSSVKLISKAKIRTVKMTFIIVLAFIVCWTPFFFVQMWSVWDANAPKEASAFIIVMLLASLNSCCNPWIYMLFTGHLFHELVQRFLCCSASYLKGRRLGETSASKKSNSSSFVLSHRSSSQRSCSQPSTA

[2] = target: Vasopressin V1a receptor (Homo sapiens, UniProt P37288); assay: Antagonist activity at human vasopressin V1A receptor expressed in HEK293 cells assessed as decrease in vasopressin-stimulated calcium flux measured after 10 mins by Fluo-4 dye based microplate reader based assay; assay type: functional, cell-based
Vasopressin V1a receptor, sequence (P37288 whole entry): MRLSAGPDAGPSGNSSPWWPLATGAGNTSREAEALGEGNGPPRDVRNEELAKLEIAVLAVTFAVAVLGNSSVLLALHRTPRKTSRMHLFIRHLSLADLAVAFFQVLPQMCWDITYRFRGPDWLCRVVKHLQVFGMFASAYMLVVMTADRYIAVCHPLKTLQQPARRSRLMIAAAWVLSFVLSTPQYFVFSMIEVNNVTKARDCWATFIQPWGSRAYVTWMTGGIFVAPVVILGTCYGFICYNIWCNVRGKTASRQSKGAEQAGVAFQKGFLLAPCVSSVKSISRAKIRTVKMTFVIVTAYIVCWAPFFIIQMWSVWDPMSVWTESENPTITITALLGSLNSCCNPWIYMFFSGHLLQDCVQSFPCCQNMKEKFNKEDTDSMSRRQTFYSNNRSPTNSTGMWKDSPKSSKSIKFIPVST

[3] = Half-life in Sprague-Dawley rat at 2 mg/kg, po measured for 24 hrs by LC-MS/MS analysis; assay type: ADME, organism-based; details: in vivo
[4] = Cmax in Sprague-Dawley rat at 2 mg/kg, po measured for 24 hrs by LC-MS/MS analysis; assay type: ADME, organism-based; parameters: dose 2 mg/kg, route oral; details: in vivo
[5] = Clearance in Sprague-Dawley rat at 1 mg/kg, iv measured for 24 hrs by LC-MS/MS analysis; assay type: ADME, organism-based; details: in vivo
[6] = AUC (0 to 24 hrs) in Sprague-Dawley rat at 2 mg/kg, po by LC-MS/MS analysis; assay type: ADME, organism-based; parameters: time < 24 hr, dose 2 mg/kg, route oral; details: in vivo
[7] = target: Voltage-gated inwardly rectifying potassium channel KCNH2 (Homo sapiens, UniProt Q12809); assay: Inhibition of human ERG
Voltage-gated inwardly rectifying potassium channel KCNH2, sequence (Q12809 whole entry): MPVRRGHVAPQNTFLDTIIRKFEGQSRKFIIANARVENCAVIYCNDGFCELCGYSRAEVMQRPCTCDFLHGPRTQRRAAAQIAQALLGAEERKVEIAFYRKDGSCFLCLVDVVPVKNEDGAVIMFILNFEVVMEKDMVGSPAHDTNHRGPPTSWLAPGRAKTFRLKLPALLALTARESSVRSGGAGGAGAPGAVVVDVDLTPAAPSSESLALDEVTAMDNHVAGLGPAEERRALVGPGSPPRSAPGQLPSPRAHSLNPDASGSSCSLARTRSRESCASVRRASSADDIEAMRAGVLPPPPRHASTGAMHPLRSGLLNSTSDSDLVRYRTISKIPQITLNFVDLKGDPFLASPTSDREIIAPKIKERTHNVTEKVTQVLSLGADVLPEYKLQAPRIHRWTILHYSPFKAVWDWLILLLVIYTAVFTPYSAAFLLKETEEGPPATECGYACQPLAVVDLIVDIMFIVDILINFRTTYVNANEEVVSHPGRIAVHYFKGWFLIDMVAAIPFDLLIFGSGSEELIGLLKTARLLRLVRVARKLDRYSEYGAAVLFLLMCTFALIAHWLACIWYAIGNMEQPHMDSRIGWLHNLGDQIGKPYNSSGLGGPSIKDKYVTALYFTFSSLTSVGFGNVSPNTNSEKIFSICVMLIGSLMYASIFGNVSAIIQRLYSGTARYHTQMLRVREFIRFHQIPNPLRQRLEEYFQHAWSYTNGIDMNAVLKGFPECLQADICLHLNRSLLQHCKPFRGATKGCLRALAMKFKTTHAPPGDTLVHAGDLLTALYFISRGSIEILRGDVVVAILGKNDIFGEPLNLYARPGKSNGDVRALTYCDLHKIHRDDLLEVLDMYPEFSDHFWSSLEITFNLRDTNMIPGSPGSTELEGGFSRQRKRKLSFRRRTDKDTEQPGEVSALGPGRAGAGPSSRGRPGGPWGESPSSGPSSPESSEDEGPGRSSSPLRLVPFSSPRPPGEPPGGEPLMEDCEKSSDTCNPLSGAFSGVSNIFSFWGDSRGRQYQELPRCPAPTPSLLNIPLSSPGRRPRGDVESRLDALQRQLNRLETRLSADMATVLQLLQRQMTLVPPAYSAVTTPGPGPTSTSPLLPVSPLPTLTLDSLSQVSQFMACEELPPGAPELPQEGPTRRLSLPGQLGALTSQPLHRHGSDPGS

[8] = target: T2, Vasopressin V1b receptor (Homo sapiens, UniProt P47901); assay: Antagonist activity at human vasopressin V1B receptor expressed in HEK293 cells assessed as decrease in vasopressin-stimulated calcium flux measured after 10 mins by Fluo-4 dye based microplate reader based assay; assay type: functional, cell-based
T2 sequence (P47901 whole entry): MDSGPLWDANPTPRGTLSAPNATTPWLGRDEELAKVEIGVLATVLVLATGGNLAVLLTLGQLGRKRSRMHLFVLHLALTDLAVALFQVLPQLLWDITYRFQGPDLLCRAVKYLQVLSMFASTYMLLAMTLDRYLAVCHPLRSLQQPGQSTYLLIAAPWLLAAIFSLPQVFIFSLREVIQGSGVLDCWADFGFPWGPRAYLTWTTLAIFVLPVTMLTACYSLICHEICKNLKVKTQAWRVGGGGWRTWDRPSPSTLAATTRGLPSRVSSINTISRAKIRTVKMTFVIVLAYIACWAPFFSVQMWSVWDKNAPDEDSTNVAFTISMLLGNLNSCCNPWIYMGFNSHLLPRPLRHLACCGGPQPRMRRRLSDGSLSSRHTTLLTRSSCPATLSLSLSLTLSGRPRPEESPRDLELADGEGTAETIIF

[9] = Unbound fraction in Sprague-Dawley rat brain by LC-MS/MS analysis; assay type: ADME, tissue-based
[10] = Plasma concentration in Sprague-Dawley rat by LC-MS/MS analysis; assay type: ADME, cell-free
[11] = Drug concentration in Sprague-Dawley rat brain by LC-MS/MS analysis; assay type: ADME, tissue-based; details: in vivo
[12] = test system: Rattus norvegicus; assay: Anti-premature ejaculation activity in anesthetized oxytocin-induced uterine contraction Sprague-Dawley rat model assessed as decrease in intraluminal uterine pressure at 30 mg/kg, po treated for 20 mins and 1 hr later treated with oxytocin and measured for 15 to 30 mins relative to control; assay type: functional
[13] = Unbound fraction in Sprague-Dawley rat plasma by LC-MS/MS analysis; assay type: ADME, cell-free
[14] = AUC (0 to 24 hrs) in anesthetized oxytocin-induced uterine contraction Sprague-Dawley rat model at 30 mg/kg, po; assay type: ADME, organism-based; parameters: dose 30 mg/kg, time < 24 hr, route oral; details: in vivo
[15] = Unbound brain-to-plasma concentration ratio in Sprague-Dawley rat by LC-MS/MS analysis; assay type: ADME, cell-free; details: read-out: K(p,uu,brain)

Row | Compound | IC50 [1] | IC50 [2] | further results
1 | COc1ccc(-n2c(CO[C@@H]3CCOC3)nnc2N2C[C@@H]3C[C@]3(c3ccc(F)cc3Cl)C2)cn1 | 223 nM | 1980 nM | 
2 | COc1ccc(-n2c(C3CC3)nnc2N2C[C@@H]3C[C@]3(c3ccc(F)cc3Cl)C2)cn1 | 433 nM | 11000 nM | 
3 | COCc1nnc(C2CCN(Cc3ccc(F)cc3Cl)CC2)n1-c1ccc(OC)nc1 | 2790 to 3000 nM |  | 
4 | CC[C@H](C)[C@@H]1C(=O)N[C@H](C2Cc3ccccc3C2)C(=O)N1[C@@H](C(=O)N1CCOCC1)c1ccc(C)nc1C [EPELSIBAN] | 9.2 nM |  | 
5 | COc1ccc(-n2c(CC#N)nnc2N2C[C@@H]3C[C@]3(c3ccc(F)cc3Cl)C2)cn1 | 235 nM | 769 nM | IC50 [8]: 44400 nM
6 | COc1ccc(-n2c(COC3CCOCC3)nnc2N2C[C@@H]3C[C@]3(c3ccc(F)cc3Cl)C2)cn1 | 826 nM |  | 
7 | COc1ccc(-n2c(CO[C@H]3CCOC3)nnc2N2C[C@@H]3C[C@]3(c3ccc(F)cc3Cl)C2)cn1 | 184 nM |  | 
8 | COCc1nnc(N2C[C@@H]3C[C@]3(c3ccc(F)cc3Cl)C2)n1-c1ccc2c(c1)OCO2 |  | 810 nM | 
9 | COc1ccc(-n2c(C(F)F)nnc2N2C[C@@H]3C[C@]3(c3ccc(F)cc3Cl)C2)cn1 |  | 1870 nM | 

More lines, main results first:

Row | IC50 [1] | IC50 [2] | Compound | further results
10 | 1230 nM |  | COCc1nnc(N2C3CCC2CC(Oc2ccc(F)cc2Cl)C3)n1-c1ccc(OC)nc1 (stereo not given) | 
11 | 9.3 nM | 1760 nM | CCOCc1nnc(N2C[C@@H]3C[C@]3(c3ccc(F)cc3Cl)C2)n1-c1ccc(OC)nc1 | half-life [3]: 3.48 h; Cmax [4]: 135 ng/mL; clearance [5]: 17.8 mL/min/kg; AUC(0-t) at 24 h [6]: 1020 ng·h/mL; IC50 [7]: 6100 nM
12 | 850 nM |  | COCc1nnc(N2CC3CN(c4ccc(F)cc4Cl)CC32)n1-c1ccc(OC)nc1 (stereo not given) | 
13 | 10 nM |  | COCc1nnc(N2CCC(c3ccc(F)cc3Cl)CC2)n1-c1ccc(OC)nc1 | half-life [3]: 2.39 h; Cmax [4]: 96 ng/mL; clearance [5]: 45 mL/min/kg; AUC(0-t) at 24 h [6]: 767 ng·h/mL
14 | 30 nM |  | COCc1nnc(N2C[C@@H]3C[C@]3(c3cccc(F)c3Cl)C2)n1-c1ccc(OC)nc1 | half-life [3]: 3.15 h; Cmax [4]: 15 ng/mL; AUC(0-t) at 24 h [6]: 34 ng·h/mL
15 | 2560 nM |  | COCc1nnc(N2CC3COCC3(c3ccc(F)cc3Cl)C2)n1-c1ccc(OC)nc1 (stereo not given) | 
16 | 27 nM |  | COCc1nnc(N2CCC(c3ccc(F)cc3Cl)C2)n1-c1ccc(OC)nc1 (stereo not given) | half-life [3]: 1.89 h; Cmax [4]: 204 ng/mL; AUC(0-t) at 24 h [6]: 478 ng·h/mL
17 | 121 nM |  | COCc1nnc(N2CC3CN(c4ccc(F)cc4Cl)C3C2)n1-c1ccc(OC)nc1 (stereo not given) | 
18 | 1380 nM |  | COCc1nnc(N2C[C@H]3C[C@@H](Oc4ccc(F)cc4Cl)C[C@H]3C2)n1-c1ccc(OC)nc1 | 
19 | 23.2 nM |  | COCc1nnc(N2CC(Oc3ccc(F)cc3Cl)C2)n1-c1ccc(OC)nc1 | fraction unbound [9]: 0.0165; Cp [10]: 699 ng/mL; Ct [11]: 179 ng/g; inhibition in vivo at 30 mg/kg [12]: 76.5%; fraction unbound [13]: 0.0664; AUC(0-t) at 24 h [14]: 39500 ng·h/mL; Kp uu [15]: 0.064
20 |  | 819 nM | COc1ccc(-n2c(COCCF)nnc2N2C[C@@H]3C[C@]3(c3ccc(F)cc3Cl)C2)cn1 | 
21 | 910 nM |  | COCc1nnc(N2CCN(Cc3ccc(F)cc3Cl)CC2)n1-c1ccc(OC)nc1 | 
22 | 401 nM |  | COCc1nnc(N2CC3(CCc4cc(F)ccc4O3)C2)n1-c1ccc(OC)nc1 | 
23 | 6760 nM |  | COCc1nnc(N2CC3(C2)OCc2cc(F)ccc23)n1-c1ccc(OC)nc1 | 
